The target of one data set is CYP2C9 (Homo sapiens, UniProt P11712). Put plainly: CYP inhibition, CYP2C9. It counts as in vitro ADME. On the set-up: unit not given here. As for the experimental part:
(§1) At pre-set time-points, blood concentration of JH4 was determined by LC-MS/MS analysis[22],[23]. Other chemicals were also tested using similar protocol. In vitro ADME studies (plasma protein binding, CYP inhibition, microsomal stability, plasma stability, and hERG inhibition) were performed by New Drug Development Center (Daegu, Korea) using standard protocols[24],[25].

A short description of data set [1]: Plasma protein binding, rat. In kind it is in vitro ADME. On the procedure:
as §1

Another data set addresses T1, progerin (Mus musculus, UniProt P48678, DEL608-657).
T1 construct: Lamin A/C and progerin amounts in tissue samples including lung, liver, and kidney; from tissue; host or cells: lung, liver and kidney of Lmna G609G/+ mice
T1 sequence (P48678 with tags, fused parts or gaps DEL608-657): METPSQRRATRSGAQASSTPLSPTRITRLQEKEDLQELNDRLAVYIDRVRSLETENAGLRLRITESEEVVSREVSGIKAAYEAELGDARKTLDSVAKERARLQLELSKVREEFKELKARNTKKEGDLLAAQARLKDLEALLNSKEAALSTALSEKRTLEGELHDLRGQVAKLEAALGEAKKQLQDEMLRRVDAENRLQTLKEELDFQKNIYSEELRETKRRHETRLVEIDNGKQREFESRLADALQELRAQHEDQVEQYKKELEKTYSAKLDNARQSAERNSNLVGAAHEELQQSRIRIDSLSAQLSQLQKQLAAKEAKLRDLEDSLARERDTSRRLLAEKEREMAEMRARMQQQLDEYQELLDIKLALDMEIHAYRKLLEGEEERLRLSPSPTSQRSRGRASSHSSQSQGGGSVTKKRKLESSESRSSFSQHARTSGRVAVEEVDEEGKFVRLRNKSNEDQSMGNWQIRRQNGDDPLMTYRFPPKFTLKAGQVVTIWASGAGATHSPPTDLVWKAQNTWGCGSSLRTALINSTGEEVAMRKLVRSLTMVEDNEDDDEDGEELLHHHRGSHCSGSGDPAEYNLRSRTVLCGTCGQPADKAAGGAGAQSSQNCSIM
Put plainly: Western blot of progerin and H3K9me3 in tissue samples (lung, liver, kidney). To be noted: for H3K9me3 intensity / Progerin intensity: D011-treated LmnaG609G/+ mice. In kind it is in vivo. The text has this:
Fig. 4 Oral administration of SLC-D011 suppresses premature aging features. A Gross morphology of SLC-D011-treated (D011) mice at 8 weeks old. Body size of treated mouse was apparently larger than that of the untreated control (Con) mouse. B Oral administration of SLC-D011 increases body weights of Lmna^G609G/G609G mice. Compared with untreated control group, body weight of treated mouse was increased by ~35%, *p < 0.05. C Oral administration of SLC-D011 extends the life span of Lmna^G609G/G609G mouse. SLC-D011 in monoolein-based solution was treated by oral gavage (50 mg/kg, daily) from 5 weeks old. […] E Grip test of Lmna^G609G/+ mice at 41-week-old was performed after administration of SLC-D011 for 6 weeks. The test was repeated 10 times for each mouse (n > 4), **p < 0.001. Data are presented as mean ± SD. F Electrocardiographic analysis of Lmna^G609G/+ mice (untreated: n = 4; SLC-D011: n = 4) and Lmna^+/+ mice (n = 3) after treatment with SLC-D011 for 6 weeks (unpaired t test). Heart rate is shown as beats per minute (bpm). G Dental abnormalities in Lmna^G609G/+ mice (untreated: n = 4; SLC-D011: n = 5) and Lmna^+/+ mice (n = 4). […] Lower incisors of Lmna^G609G transgenic mice grow toward the palate because of malocclusion. Oral administration of SLC-D011 for 6 weeks alleviates dental abnormalities. H Anti-aging effects of single treatment of SLC-D011 or lonafarnib were measured in HGPS patients-derived cells (AG11513, AG03199, AG11498, and AG03198, Coriell Cell Repositories). Single treatment of SLC-D011, compared to lonafarnib, reduced the expression of progerin but induced the expression of H3K9me3 and cyclin B1 in HGPS cells more effectively. HGPS patients-derived cells were treated with SLC-D011 (500 nM) or lonafarnib (500 nM) for 3 days. I Scheme of interaction between lamin A and progerin. SLC-D011 interrupts the interaction between lamin A and progerin through direct binding to the C-terminal region of progerin. “Con” and “untreated” mean vehicle (monoolein-based solution)-treated mouse group or vehicle (DMSO)-treated cells. TEXT PRINTED IN THE PICTURE: (C) D011: Kaplan-Meier survival curve in Lmna^G609G/G609G: Ave=25.2; Kaplan-Meier survival curve in Lmna^G609G/G609G: Max=26 DOUBTS OF THE COPYIST ABOUT THIS PICTURE: Panel C: Ave=25.2 / Max=26 are assigned to D011 only because they are printed beside the solid curve. No unit is printed with them; the x axis reads Age (weeks). / Panel C: Ave=16.8 / Max=18 are printed beside the dashed curve of the control (Con). They are left out because Con is not a substance.
Lamin A/C and progerin amounts in tissue samples including lung, liver, and kidney analysis of two Lmna^+/+, four untreated Lmna^G609G/+, and four D011-treated Lmna^G609G/+ mice were evaluated by western blotting. Proteins were extracted with RIPA lysis buffer supplemented with protease inhibitors. Tissues were sonicated and centrifuged at 15,000 rpm for 15 min at 4 °C. Protein concentration was determined by Coomassie-blue staining. Cellular lysates in SDS-containing sample buffer were inactivated by heating at 98 °C for 7 min. Proteins were loaded onto 8% SDS-PAGE gels and transferred to PVDF membranes. These membranes were blocked with 3% skimmed milk in TBS-T buffer for 1 h and incubated with primary antibodies including mouse monoclonal anti-progerin (1:100; sc-81611; Santa Cruz Biotechnology), mouse monoclonal anti-lamin A/C (1:500; MANLAC1; Developmental Studies Hybridoma Bank), and rabbit polyclonal anti-H3K9me3 (1;2000; Ab8898; Abcam) at 4°C overnight. Blots were then incubated with 1:10,000 goat anti-mouse (Pierce, Thermo Fisher Scientific) or 1:10,000 goat anti-rabbit (Pierce, Thermo Fisher Scientific) IgG (HRP conjugated) in 1% skimmed milk and washed with TBS-T buffer. Bands were developed using and Intron ECL detection system and quantified using Image J (National Institute of Health, NIH).
Fig. S10. […]

Where [2] appears, read: Lmna G609G/+ mice, oral 50 mg/kg daily for 8 weeks.

“And” between values parts separate entries of the source, which are not always exact repeats. Identical values can stand only once.

The fraction unbound is free concentration divided by total concentration.

Sequence of CYP2C9 (P11712 whole entry): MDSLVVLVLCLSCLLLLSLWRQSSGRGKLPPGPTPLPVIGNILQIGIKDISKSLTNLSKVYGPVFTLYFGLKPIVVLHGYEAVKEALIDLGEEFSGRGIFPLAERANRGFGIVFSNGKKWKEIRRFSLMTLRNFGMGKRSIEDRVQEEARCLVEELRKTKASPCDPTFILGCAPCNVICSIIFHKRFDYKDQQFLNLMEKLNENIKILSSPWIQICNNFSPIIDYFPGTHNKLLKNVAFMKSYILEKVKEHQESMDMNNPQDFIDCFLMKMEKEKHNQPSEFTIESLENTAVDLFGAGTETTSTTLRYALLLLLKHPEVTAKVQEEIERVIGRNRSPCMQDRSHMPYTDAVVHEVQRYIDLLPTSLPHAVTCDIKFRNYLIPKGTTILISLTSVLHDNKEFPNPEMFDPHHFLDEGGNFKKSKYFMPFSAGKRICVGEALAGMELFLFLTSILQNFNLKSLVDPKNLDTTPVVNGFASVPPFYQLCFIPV

`CC1(C)Oc2cc3oc(=O)ccc3cc2C[C@@H]1OC/C=C/c1ccccc1` [SLC-D011] displayed a CYP inhibition at CYP2C9 of 78.4. Moreover, the fraction unbound in data set [1] was 0.002. Besides, the H3K9me3 intensity is 6.21 AU and 9.731 AU on progerin (Kidney, Ave); 7.144 AU and 5.202 AU and 6.284 AU and 10.9311 AU and 8.4105 AU and 9.851 AU at progerin (Kidney, individual replicate); 4.595 AU and 7.491 AU at progerin (Liver, Ave); 4.833 AU and 4.0316 AU and 4.921 AU and 8.228 AU and 7.116 AU and 7.128 AU at progerin (Liver, individual replicate); 2.3231 AU and 2.511 AU and 2.358 AU and 5.884 AU and 5.376 AU and 5.841 AU on progerin (Lung, individual replicate). Besides, the Progerin intensity on progerin (Kidney, Ave) was 4.42 AU and 7.581 AU; on progerin (Kidney, individual replicate), 5.843 AU and 4.429 AU and 2.988 AU and 9.2 AU and 12.7266 AU and 0.8173 AU; on progerin (Liver, individual replicate) it was 1.2695 AU and 1.954 AU and 0.8023 AU and 0.5773 AU and 0.1521 AU and 0.4975 AU; on progerin (Lung, Ave) it was 1.397 AU and 0.9832 AU; at progerin (Lung, individual replicate) it was 2.376 AU and 1.606 AU and 0.2082 AU and 2.142 AU and 0.6098 AU and 0.1984 AU. Further, the “H3K9me3 level in tissues” value on progerin (setting [2]) is “increase of H3K9me3”. The “Progerin level in tissues” value at progerin (setting [2]) is “Obvious reduction of progerin”.

The record behind these values is paper PMC7782499, “Progerinin, an optimized progerin-lamin A binding inhibitor, ameliorates premature senescence phenotypes of Hutchinson-Gilford progeria syndrome” (Communications Biology, 2021).
